Test [1] concerns mouse embryonic fibroblasts (MEFs). Briefly: Spontaneous adipogenesis of MEFs in growth medium: lipid accumulation under phase contrast microscopy. The test is classed as cell-based. As to conditions: day 8 of culture in growth medium, HA 80 μg/mL, DS 20 μg/mL, HA8O+DS20 100 μg/mL. On the procedure:
MEFs obtained from embryos of 13 days gestational age were cultured in monolayer in growth medium consisting of […] (Invitrogen, Carlsbad, Calif., USA) basal medium supplemented with […] supplement (7.5%), foetal bovine serum (7.5%) and antibiotics, in 12-well culture plates of 1 mL capacity/well, following a previously described protocol (J. B. Hansen et al., Proc. Natl. Acad. Sci. USA 101, 4112-4117 (2004)). Two days after reaching confluence, which is considered day 0 of culture, the cells were exposed to: carrier (water); hyaluronic acid (HA) at a final concentration (f.c.) of 80 μg/mL; dermatan sulphate (DS) at an f.c. of 20 μg/mL; chondroitin sulphate (CS) at an f.c. of 20 μg/mL; or composition of the present invention HA8O+DS20 at an f.c. of 100 μg/mL, containing 80 μg of HA and 20 μg of DS per mL. […] The mRNA levels of the genes related to adipocyte differentiation PPARgamma, C/EBPalpha and fatty acid synthase (FAS) were determined by real-time PCR from the total RNA extracted from the cells with Trizol reagent and reverse-transcribed with reverse transcriptase, and using the mRNA of beta-actin as an internal control. […] The statistical significance of differences with respect to treatment with the carrier was analyzed by means of Student's t-test. […]

Test [2] has as its system resistin. The test can be described thus: Resistin gene expression in MEF-derived adipocytes. As to conditions: 8 days of MEF adipocyte differentiation in adipogenic medium; compositions at f.c. 20, 100, 200 μg/mL; HA 80, DS 20 μg/mL. The test is classed as cell-based, mouse. Here is the method:
MEFs obtained from embryos of 13 days gestational age were cultured in monolayer in growth medium consisting of […] (Invitrogen, Carlsbad, Calif., USA) basal medium supplemented with […] supplement (7.5%), foetal bovine serum (7.5%) and antibiotics, in 12-well culture plates of 1 mL capacity/well, following a previously described protocol (J. B. Hansen et al., Proc. Natl. Acad. Sci. USA 101, 4112-4117 (2004)). […] The mRNA levels of the genes related to adipocyte differentiation PPARgamma, C/EBPalpha and fatty acid synthase (FAS) were determined by real-time PCR from the total RNA extracted from the cells with Trizol reagent and reverse-transcribed with reverse transcriptase, and using the mRNA of beta-actin as an internal control. […] The statistical significance of differences with respect to treatment with the carrier was analyzed by means of Student's t-test. […] The mRNA levels of selected genes were determined by real-time PCR, as described in Example 1. […] Expression levels of the resistin gene were determined by real-time PCR, as described in Example 1.

Take dermatan sulphate [DS20]: the “clusters of cells spontaneously differentiated into adipocytes filled with fat droplets” value in test [1] is “presence of a number of clusters of cells spontaneously differentiated into adipocytes filled with fat droplets”. The expression of resistin entry in test [2] is “not reproduced”.
Turning to hyaluronic acid [HA80], the “clusters of cells spontaneously differentiated into adipocytes filled with fat droplets” value in test [1] is given as “presence of a number of clusters of cells spontaneously differentiated into adipocytes filled with fat droplets”. For the same substance, the expression of resistin entry in test [2] is recorded as “not reproduced”.

Values taken from patent publication US20150182597A1, “COMPOSITIONS COMPRISING HYALURONIC ACID AND DERMATAN SULPHATE FOR THE TREATMENT OF BEING OVERWEIGHT AND OBESITY” (BIOIBERICA, S.A., priority 2012, published 2015).
